Source: patent US20160222056A1, “SUBSTITUTED PHENYLALANINE DERIVATIVES” (BAYER PHARMA AKTIENGESELLSCHAFT, priority 2013, published 2016)
pIC50: −log10 of the molar value. Where a name gives a salt, the structure may show the parent alone.

Tests used:
[1] = molecular target: T1, human factor XIa (Homo sapiens, UniProt P03951); assay: Measurement of FXIa inhibition (fluorogenic peptide substrate); type: biochemical; details: human factor XIa from Kordia, substrate Boc-Glu(OBzl)-Ala-Arg-AMC, 30 min at 22° C.; read-out: IC50 (FXIa inhibition)
T1 construct: purchased Kordia
Description: To determine the factor XIa inhibition of the substances according to the invention, a biochemical test system is used which utilizes the reaction of a peptidic factor XIa substrate to determine the enzymatic activity of human factor XIa. Here, factor XIa cleaves from the peptic factor XIa substrate the C-terminal aminomethylcoumarin (AMC), the fluorescence of which is measured. The determinations are carried out in microtitre plates.
Test substances are dissolved in dimethyl sulphoxide and serially diluted in dimethyl sulphoxide (3000 μM to 0.0078 μM; resulting final concentrations in the test: 50 μM to 0.00013 μM). In each case 1 μl of the diluted substance solutions are placed into the wells of white microtitre plates from Greiner (384 wells). Subsequently, the following are added successively: 20 μl of assay buffer (50 mmol/1 Tris buffer pH 7.4; 100 mmol/1 sodium chloride; 5 mmol/1 calcium chloride; 0.1% bovine serum albumin) and 20 μl of factor XIa from Kordia (0.45 nM in assay buffer). After 15 min of incubation, the enzyme reaction is started by addition of 20 μl of the factor XIa substrate Boc-Glu(OBzl)-Ala-Arg-AMC dissolved in assay buffer (10 μM in assay buffer) from Bachem, the mixture is incubated at room temperature (22° C.) for 30 min and fluorescence is then measured (excitation: 360 nm, emission: 460 nm). The measured emissions of the test batches with test substance are compared to those of control batches without test substance (only dimethyl sulphoxide instead of test substance in dimethyl sulphoxide), and the IC50 values are calculated from the concentration/activity relationships.

[2] = test system: human and animal plasma; assay: Anticoagulatory activity: activated partial thromboplastin time (aPTT) in plasma; type: biochemical; details: in vitro in plasma, C.K. Prest kit, 37° C. for 3 minutes; plasma species of Table B not stated
Description: The anticoagulatory activity of the test substances is determined in vitro in human and animal plasma (for example mouse, rat, rabbit, pig and dog plasma). To this end, blood is drawn off in a mixing ratio of sodium citrate/blood of 1:9 using a 0.11 molar sodium citrate solution as receiver. Immediately after the blood has been drawn off, it is mixed thoroughly and centrifuged at about 4000 g for 15 minutes. The supernatant is pipetted off.
The activated partial thromboplastin time (aPTT) is determined in the presence of varying concentrations of test substance or the corresponding solvent using a commercial test kit (C.K. Prest from Diagnostica Stago). The test compounds are incubated with the plasma and the PTT reagent (cephalin, kaolin) at 37° C. for 3 minutes. Coagulation is then started by addition of 25 mM aqueous calcium chloride, and the time when coagulation occurs is determined. The concentration of test substance which brings about a 1.5-fold extension of the aPTT is determined.

T1 sequence (P03951 388-625 limits assumed): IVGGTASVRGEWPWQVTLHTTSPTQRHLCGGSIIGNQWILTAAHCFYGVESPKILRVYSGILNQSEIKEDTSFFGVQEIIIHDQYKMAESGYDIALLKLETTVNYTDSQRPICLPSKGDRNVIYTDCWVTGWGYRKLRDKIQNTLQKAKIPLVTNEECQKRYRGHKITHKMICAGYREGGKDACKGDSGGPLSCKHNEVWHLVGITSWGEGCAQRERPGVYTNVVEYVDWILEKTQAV
T1 sequence (P03951 19-387 partner limits assumed): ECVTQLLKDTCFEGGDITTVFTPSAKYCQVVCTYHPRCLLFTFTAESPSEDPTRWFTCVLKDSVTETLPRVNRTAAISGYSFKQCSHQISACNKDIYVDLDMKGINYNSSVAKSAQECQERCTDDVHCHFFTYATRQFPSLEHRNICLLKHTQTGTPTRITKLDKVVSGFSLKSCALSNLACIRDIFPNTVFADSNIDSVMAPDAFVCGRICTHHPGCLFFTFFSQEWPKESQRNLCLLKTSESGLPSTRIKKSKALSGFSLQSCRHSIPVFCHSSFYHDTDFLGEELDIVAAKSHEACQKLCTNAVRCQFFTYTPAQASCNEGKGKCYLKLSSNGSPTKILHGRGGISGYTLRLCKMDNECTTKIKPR

SMILES | pIC50 [1] | aPTT (concentration of test substance which brings about a 1.5-fold extension of the aPTT) [2]
Cc1nc(C(=O)NC2CCC(N(C)C)CC2)ccc1-c1ccc(C[C@H](NC(=O)[C@H]2CC[C@H](CN)CC2)C(=O)Nc2ccc(-c3nn[nH]n3)cc2)cc1 (stereo partly drawn) [Example 2, N-alpha-{[trans-4-(Aminomethyl)cyclohexyl]carbonyl}-4-(6-{[4-(dimethylamino)cyclohexyl]-carbamoyl}-2-methylpyridin-3-yl)-N-[4-(2H-tetrazol-5-yl)phenyl]-L-phenylalaninamide hydrochloride] | 8.72 | 0.08 µmol/L
Cc1cc(C(=O)NC2CCNCC2)ncc1-c1ccc(C[C@H](NC(=O)[C@H]2CC[C@H](CN)CC2)C(=O)Nc2ccc(-c3nnn[nH]3)cc2)cc1 [Example 5, N-alpha-{[trans-4-(Aminomethyl)cyclohexyl]carbonyl}-4-[4-methyl-6-(piperidin-4-ylcarbamoyl)pyridin-3-yl]-N-[4-(1H-tetrazol-5-yl)phenyl]-L-phenylalaninamide hydrochloride] | 8.72 | 0.04 µmol/L
Cc1cc(C(=O)N2CC(C)NC(C)C2)ncc1-c1ccc(C[C@H](NC(=O)C2CCC(CN)CC2)C(=O)Nc2ccc(-c3nnn[nH]3)cc2)cc1 (stereo partly drawn) [Example 6, N-alpha-{[trans-4-(Aminomethyl)cyclohexyl]carbonyl}-4-{6-[(3,5-dimethylpiperazin-1-yl)carbonyl]-4-methylpyridin-3-yl}-N-[4-(1H-tetrazol-5-yl)phenyl]-L-phenylalaninamide hydrochloride] | 8.39 | 0.04 µmol/L
CCN(CC)C1CCC(NC(=O)c2cc(C)c(-c3ccc(C[C@H](NC(=O)[C@H]4CC[C@H](CN)CC4)C(=O)Nc4ccc(-c5nnn[nH]5)cc4)cc3)cn2)CC1 (stereo partly drawn) [Example 7, N-alpha-{[trans-4-(Aminomethyl)cyclohexyl]carbonyl}-4-(6-{[4-(diethylamino)cyclohexyl]-carbamoyl}-4-methylpyridin-3-yl)-N-[4-(1H-tetrazol-5-yl)phenyl]-L-phenylalaninamide hydrochloride] | 8.59 | 0.04 µmol/L
CCN(CC)CCCNC(=O)c1cc(C)c(-c2ccc(C[C@H](NC(=O)[C@H]3CC[C@H](CN)CC3)C(=O)Nc3ccc(-c4nnn[nH]4)cc3)cc2)cn1 [Example 9, N-alpha-{[trans-4-(Aminomethyl)cyclohexyl]carbonyl}-4-(6-{[3-(diethylamino)propyl]-carbamoyl}-4-methylpyridin-3-yl)-N-[4-(1H-tetrazol-5-yl)phenyl]-L-phenylalaninamide hydrochloride] | 8.28 | 0.05 µmol/L
Cc1cc(C(=O)NC2CC3CCC(C2)N3)ncc1-c1ccc(CC(NC(=O)C2CCC(CN)CC2)C(=O)Nc2ccc(-c3nnn[nH]3)cc2)cc1 [Example 10, N-alpha-{[trans-4-(Aminomethyl)cyclohexyl]carbonyl}-4-{6-[(1R,5S)-8-azabicyclo[3.2.1]oct-3-ylcarbamoyl]-4-methylpyridin-3-yl}-N-[4-(1H-tetrazol-5-yl)phenyl]-L-phenylalaninamide hydrochloride] | 8.52 | 0.07 µmol/L
Cc1cc(C(=O)NC2CC3COCC(C2)N3)ncc1-c1ccc(C[C@H](NC(=O)C2CCC(CN)CC2)C(=O)Nc2ccc(-c3nnn[nH]3)cc2)cc1 (stereo partly drawn) [Example 11, N-alpha-{[trans-4-(Aminomethyl)cyclohexyl]carbonyl}-4-[4-methyl-6-(3-oxa-9-azabicyclo[3.3.1]non-7-ylcarbamoyl)pyridin-3-yl]-N-[4-(1H-tetrazol-5-yl)phenyl]-L-phenylalaninamide hydrochloride] | 8.28 | 0.07 µmol/L
Cc1nc(C(=O)NC2CCN(C)CC2)ccc1-c1ccc(C[C@H](NC(=O)[C@H]2CC[C@H](CN)CC2)C(=O)Nc2ccc(-c3nnn[nH]3)cc2)cc1 [Example 30, N-alpha-{[trans-4-(Aminomethyl)cyclohexyl]carbonyl}-4{-2-methyl-6-[(1-methylpiperidin-4-yl)carbamoyl]pyridin-3-yl}-N-[4-(1H-tetrazol-5-yl)phenyl]-L-phenylalaninamide hydrochloride] | 8.26 | 
Cc1nc(C(=O)N[C@H]2CC[C@H](N)CC2)ccc1-c1ccc(C[C@H](NC(=O)[C@H]2CC[C@H](CN)CC2)C(=O)Nc2ccc(-c3nn[nH]n3)cc2)cc1 [Example 31, 4-{6-[(trans-4-Aminocyclohexyl)carbamoyl]-2-methylpyridin-3-yl}-N-alpha-{[trans-4-(aminomethyl)cyclohexyl]carbonyl}-N-[4-(2H-tetrazol-5-yl)phenyl]-L-phenylalaninamide hydrochloride] | 8.72 | 
Cc1cc(C(=O)N2CCNC(=O)C2)ncc1-c1ccc(C[C@H](NC(=O)[C@H]2CC[C@H](CN)CC2)C(=O)Nc2ccc(-c3nnn[nH]3)cc2)cc1 [Example 32, N-alpha-{[trans-4-(Aminomethyl)cyclohexyl]carbonyl}-4-{4-methyl-6-[(3-oxopiperazin-1-yl)carbonyl]pyridin-3-yl}-N-[4-(1H-tetrazol-5-yl)phenyl]-L-phenylalaninamide hydrochloride] | 8.74 | 

The remaining compounds from weak to strong by pIC50 [1], led by results:

pIC50 [1] | SMILES | aPTT (concentration of test substance which brings about a 1.5-fold extension of the aPTT) [2]
8.25 | CCN(CC)CCNC(=O)c1ccc(-c2ccc(C[C@H](NC(=O)[C@H]3CC[C@H](CN)CC3)C(=O)Nc3ccc(-c4nn[nH]n4)cc3)cc2)c(C)n1 [Example 3, N-alpha-{[trans-4-(Aminomethyl)cyclohexyl]carbonyl}-4-(6-{[2-(diethylamino)ethyl]carbamoyl}-2-methylpyridin-3-yl)-N-[4-(2H-tetrazol-5-yl)phenyl]-L-phenylalaninamide hydrochloride] | 0.16 µmol/L
8.32 | Cc1cc(C(=O)NCCCN(C)C)ncc1-c1ccc(C[C@H](NC(=O)[C@H]2CC[C@H](CN)CC2)C(=O)Nc2ccc(-c3nnn[nH]3)cc2)cc1 [Example 12, N-alpha-{[trans-4-(Aminomethyl)cyclohexyl]carbonyl}-4-(6-{[3-(dimethylamino)propyl]-carbamoyl}-4-methylpyridin-3-yl)-N-[4-(1H-tetrazol-5-yl)phenyl]-L-phenylalaninamide hydrochloride] | 0.08 µmol/L
8.66 | Cc1cc(C(=O)NC2CCNCC2F)ncc1-c1ccc(C[C@H](NC(=O)C2CCC(CN)CC2)C(=O)Nc2ccc(-c3nnn[nH]3)cc2)cc1 (stereo partly drawn) [Example 8, N-alpha-{[trans-4-(Aminomethyl)cyclohexyl]carbonyl}-4-{6-[(3-fluoropiperidin-4-yl)carbamoyl]-4-methylpyridin-3-yl}-N-[4-(1H-tetrazol-5-yl)phenyl]-L-phenylalaninamide hydrochloride] | 0.05 µmol/L
8.70 | CCN(CC)CCNC(=O)c1ccc(-c2ccc(C[C@H](NC(=O)[C@H]3CC[C@H](CN)CC3)C(=O)Nc3ccc(-c4nn[nH]n4)cc3)cc2)c(C(F)(F)F)n1 [Example 1, N-alpha-{[trans-4-(Aminomethyl)cyclohexyl]carbonyl}-4-[6-{[2-(diethylamino)ethyl]carbamoyl}-2-(trifluoromethyl)pyridin-3-yl]-N-[4-(2H-tetrazol-5-yl)phenyl]-L-phenylalaninamide hydrochloride] | 0.1 µmol/L
8.89 | Cc1nc(C(=O)N[C@H]2CCCNC2=O)ccc1-c1ccc(C[C@H](NC(=O)[C@H]2CC[C@H](CN)CC2)C(=O)Nc2ccc(-c3nn[nH]n3)cc2)cc1 [Example 4, N-alpha-{[trans-4-(Aminomethyl)cyclohexyl]carbonyl}-4-(2-methyl-6-{[(3S)-2-oxopiperidin-3-yl]carbamoyl}pyridin-3-yl)-N-[4-(2H-tetrazol-5-yl)phenyl]-L-phenylalaninamide hydrochloride] | 0.2 µmol/L
